Laboratory results: the supplement of paper PMC10307832

compound: C=CCn1c(=O)c2cnc(Nc3ccc(N4CCN(C)CC4)cc3)nc2n1-c1cccc(C(C)(C)O)n1 [Adavosertib] + COc1cc2c(Oc3ccc(NC(=O)C4(C(=O)Nc5ccc(F)cc5)CC4)cc3F)ccnc2cc1OCCCN1CCOCC1 [Foretinib] (partner 0.25 µM); assay: relative viability (nuclei count vs DMSO), 5 days (fraction); higher = more cells survive; details: first compound 0.01 µM
Procedure, shortened: (§1)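 Medians of duplicate plates are given as relative viability. That measure is the nuclei count in treated wells divided by the count in vehicle wells. Counts were taken on 4× images of lung cancer cell lines in 1536-well plates, 5 days after pin-tool dosing the day after seeding with one drug alone or a fixed anchor-drug dose plus five library-drug doses (not always all listed) in √10 steps.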

Cell Line	relative viability
NCI-H647	1.15
NCI-H650	1.06
NCI-H727	0.689
NCI-H838	1.06
NCI-H1355	1.01
NCI-H1395	0.922
NCI-H1437	1.2
NCI-H1651	0.729
NCI-H1666	0.93
NCI-H1734	0.954
NCI-H1755	0.881
NCI-H1793	0.633
NCI-H1915	1.14
NCI-H1944	0.869
NCI-H1975	0.967
NCI-H1993	0.795
NCI-H2085	0.785
NCI-H2087	1.22
NCI-H2126	1.27
NCI-H2170	1.02
NCI-H2347	0.829
NCI-H2405	1.05
NCI-H3122	0.982
PC-3 [JPC-3]	0.957
PC-14	0.934
RERF-LC-KJ	0.857

same assay, conditions: first compound 0.03162 µM

Cell Line	relative viability
LXF-289	0.973
NCI-H23	0.891
NCI-H322M	0.978
NCI-H358	0.682
NCI-H441	0.964
NCI-H460	0.933
NCI-H596	1.03
NCI-H647	1.33
NCI-H650	1.01
NCI-H727	1.07
NCI-H838	1.06
NCI-H1355	1.02
NCI-H1395	0.932
NCI-H1437	1.35
NCI-H1651	0.95
NCI-H1666	0.953
NCI-H1734	0.831

Cell Line	relative viability
NCI-H1755	0.893
NCI-H1793	0.599
NCI-H1915	1.03
NCI-H1944	0.9
NCI-H1975	0.962
NCI-H1993	0.863
NCI-H2085	0.954
NCI-H2087	1.11
NCI-H2126	1.22
NCI-H2170	0.603
NCI-H2347	0.926
NCI-H2405	1.06
NCI-H3122	0.931
PC-3 [JPC-3]	1.04
PC-14	0.957
RERF-LC-KJ	0.844

same assay, conditions: first compound 0.1 µM

Cell Line	relative viability
LXF-289	0.973
NCI-H23	0.75
NCI-H322M	0.821
NCI-H358	0.592
NCI-H441	1.09
NCI-H460	1.1
NCI-H596	0.87
NCI-H647	1.04
NCI-H650	1.06
NCI-H727	0.917
NCI-H838	1.04
NCI-H1355	0.975
NCI-H1395	0.989
NCI-H1437	1.27
NCI-H1651	0.812
NCI-H1666	0.961
NCI-H1734	0.82

Cell Line	relative viability
NCI-H1755	0.912
NCI-H1793	0.644
NCI-H1915	1.2
NCI-H1944	0.842
NCI-H1975	0.878
NCI-H1993	0.83
NCI-H2085	0.887
NCI-H2087	1.37
NCI-H2126	1.15
NCI-H2170	0.923
NCI-H2347	0.697
NCI-H2405	1.1
NCI-H3122	0.956
PC-3 [JPC-3]	1.04
PC-14	0.933
RERF-LC-KJ	0.882

same assay, conditions: first compound 0.3162 µM

Cell Line	relative viability
LXF-289	1.03
NCI-H23	0.261
NCI-H322M	0.517
NCI-H358	0.285
NCI-H441	0.916
NCI-H460	0.994
NCI-H596	0.755
NCI-H647	1.12
NCI-H650	0.889
NCI-H727	0.831
NCI-H838	1.19
NCI-H1355	0.946
NCI-H1395	0.83
NCI-H1437	1.25
NCI-H1651	0.723
NCI-H1666	0.887
NCI-H1734	0.759

Cell Line	relative viability
NCI-H1755	0.918
NCI-H1793	0.508
NCI-H1915	1.14
NCI-H1944	0.717
NCI-H1975	0.778
NCI-H1993	0.838
NCI-H2085	0.921
NCI-H2087	1.06
NCI-H2126	1.16
NCI-H2170	1.07
NCI-H2347	0.989
NCI-H2405	1.13
NCI-H3122	0.996
PC-3 [JPC-3]	1.04
PC-14	0.636
RERF-LC-KJ	0.954

compound: COc1nc(N)nc2c1ncn2[C@@H]1O[C@H](CO)[C@@H](O)[C@@H]1O [Nelarabine] + Cc1nc(NC(=O)N2CCC[C@H]2C(N)=O)sc1-c1ccnc(C(C)(C)C(F)(F)F)c1 [Alpelisib] (partner 2 µM); assay: as above; details: first compound 0.01 µM
Procedure, shortened: as §1

Cell Line	relative viability
LXF-289	1.19
NCI-H23	0.637
NCI-H322M	0.926
NCI-H358	0.906
NCI-H441	0.974
NCI-H460	1.03
NCI-H596	0.532
NCI-H647	1.2
NCI-H650	1.38
NCI-H727	0.683
NCI-H838	1.29
NCI-H1355	1.09
NCI-H1395	1.15
NCI-H1437	1.17
NCI-H1651	1.15
